Laboratory results as given in US20250340944A1, “METHOD TO ASSIST IN SCREENING FOR LATE RECURRENCE OF ER+ BREAST CANCER, AND METHOD FOR SCREENING THERAPEUTIC DRUGS” (JAPANESE FOUNDATION FOR CANCER RESEARCH, priority 2022, published 2025).

Assays:
Format in all cases: cell-based
HCC1428-LTED cells [1] = assay: FACS analysis of CD44/CD24 expression (breast cancer stem cells) after LNA knock-down of ELEANOR2; conditions: LNA transfected with RNAiMAX, analysis after 48 hours
Experimental: ELEANOR2 RNA which is most abundant in ELEANORS was knocked down by LNA, and CD44/CD24 expression was analyzed by FACS (FIG. 5B). The LNA below was transfected using RNAiMAX (Invitrogen), and analysis was performed after 48 hours.

CD44 mRNA = assay: RT-qPCR of CD44 mRNA after suppression of ELEANOR expression by LNAs; conditions: HCC1428-LTED cells, ELEANOR knock-down by LNA
Experimental: FIG. 5D is a graph showing the results of RT-qPCR analysis of expressions of ESR1 and CD44 when ELEANORS are knocked down by ELEANOR2 LNA and pa-ELEANOR LNA.
Expressions of ESR1, ELEANORS, and CD44 in the HC1428 and HC1428-LTED cells were analyzed by RT-qPCR using the primers below. In the RT-qPCR, total RNA was purified from cultured cells using NucleoSpin RNA/protein kit (MACHEREY-NAGEL) and was reverse-transcribed by ReverTra Ace qPCR RT Master Mix (TOYOBO Co., Ltd.). The RT-qPCR was performed by ABI Prism 7500 (ABI inc.) using SYBR Green.
Subsequently, the ELEANOR expression was suppressed by LNAs of SEQ ID NO: 1 and SEQ ID NO: 41 specific to ELEANORS, and whether the CD44 expression is changed or not was investigated. The expression of CD44 mRNA was decreased by knock-down of these ELEANORS (FIG. 5D).

HCC1428-LTED cells [2] = assay: FACS analysis of CD44 expression on the cell surface after ELEANOR knock-down
Experimental: The maximum value in the analysis is defined as 100.
Whether the CD44 expression is changed also at the protein level was investigated. Comparative analysis of CD44 expression between HCC1428 and HCC1428-LTED cells was performed. The LNA of SEQ ID NO: 1 that suppresses ELEANOR expression and siRNA (Thermo Fisher Scientific) that suppresses CD44 expression were introduced into HCC1428-LTED cells, and the CD44 expression was analyzed by Western blotting (FIG. 5E). […] Furthermore, an ELEANOR was knocked down by introducing the LNA of SEQ ID NO: 1 into HCC1428-LTED cells, and whether the CD44 expression on the cell surface is also changed or not was analyzed by FACS.

Substance | number of breast cancer stem cells (CD44+/CD24-/low) (HCC1428-LTED cells [1]) | expression of CD44 mRNA (CD44 mRNA) | number of CD44+ cells (HCC1428-LTED cells [2])
ELEANOR2-LNA: LNA that knocks down ELEANOR2 RNA, sequence TTTGGCCACATTGGAA (SEQ ID NO: 1) (LNA-modified antisense, pattern not given here) | significantly decreased | decreased | decreased
pa-ELEANOR-LNA: LNA specific to pa-ELEANOR, sequence GTGCCAGACTCCGATA (SEQ ID NO: 41) (LNA-modified antisense, pattern not given here) | – | decreased | –
